Measured values published in patent US20130090371A1, “METHODS AND COMPOSITIONS FOR INHIBITION OF BETA2-ADRENERGIC RECEPTOR DEGRADATION” (PRESIDENT AND FELLOWS OF HARVARD COLLEGE, priority 2010, published 2013).
d = 2'-deoxy (DNA); r = 2'-OH (RNA)

Legend:
β2AR [1] = assay: Immunoblot of β2AR protein in human airway smooth muscle (HASM) cells
Method: Error bars represented the standard deviations; Student t-test * p<0.05, n=2. […] Indirect Immunofluorescence staining of β2AR and phase contract images are shown.
Three days after the inhibitor treatment cell lysates were collected and analyzed by immunoblotting. Three repeats were done with similar results.
Immunoblot analysis. 48 h post DNA transfection, cells were wash with PBS and lysed with NP-40 lysing buffer (50 mM Tris-HCl pH7.5, 150 mM NaCl, 0.5% Nonidet P-40) containing protease inhibitor cocktail (Roche). Protein samples were separated on NuPAGE 10% Bis-Tris gels (Invitrogen) and transferred to nitrocellulose membranes (Bio-Rad). Immunoblot signals were developed using SuperSignal West Pico Chemiluminescent Substrate (Pierce, Rockford, Ill., USA) and quantified by a Luminescence Imager or exposed to X-ray films.

β2AR [2] = assay: Immunoblot of exogenously expressed β2AR in 293β2AR cells; assay type: cell-based, human; details: at a higher concentration; three days
Excerpt: Three repeats were done with similar results.

latrophilin 2 = assay: Quantitative real-time PCR of latrophilin 2 expression; assay type: cell-based, human; details: vs NT siRNA
Excerpt: FIG. 11A-11C show inhibition of an EST RNA (AA496068) increases latrophilin 2 expression and decreases β2-AR degradation. FIG. 11A show the genomic locus that is targeted by AA496068 EST shRNA (SEQ ID NO: 2). The shRNA corresponds to sequences in an EST AA496068, which is about 150 kb upstream of the latrophilin 2 gene, and binding of this shRNA […] (SEQ ID NO: 2) activates latrophilin 2 and decreases β2-AR degradation. Thus SEQ ID NO: 2 serves as an activator or agonist of lactrophinin 2. The whole region covering the EST and latrophilin 2 is also annotated as KIAA0786. […] Cells were then labeled with anti-FLAG-FITC and analyzed by flow cytometry. FIG. 11B are histograms showing the distribution of cells treated with vehicle (upper panel) or ISO (lower panel) are shown above. […] Total RNA was isolated from cells transfected with NT or AA496068 EST siRNAs. Latrophilin 2 and AA496068 EST expression was determined by reverse transcription using random hexamers followed by quantitative real-time PCR.

β2AR [3] = assay: Baseline β2AR expression in cells after AAEST knockdown; assay type: cell-based
β2AR [4] = assay: qRT-PCR of β2AR mRNA in HASM cells; assay type: cell-based, human; details: AAEST siRNA
surface β2-AR = assay: Surface β2-AR by FACS (α-Flag FITC) after AAEST siRNA; assay type: cell-based, human; details: text: HASM cells; legend FIG. 16A: HEK293 cells
wild-type β2AR [5] = biological target: T1, wild-type β2AR (Homo sapiens, UniProt P07550); assay: Immunoblot of agonist-induced degradation of wild-type β2AR; assay type: cell-based; details: siRNA-transfected cells
T1 construct: expressed in transfected cells; host or cells: HEK293 (293.β2AR^WT)
Method: β2AR ubiquitination and degradation assays. Cells expressing PAR or β2ARt were subjected to 10 μM ISO (Sigma) stimulation, lysed in 0.5% NP-40 lysis buffer and immunoblotted with anti-FLAG-HRP (Sigma). For β2AR ubiquitination, β2ARt or wt-β2AR expressing cells were first incubated with 10 μM alprenolol antagonist (Sigma) for 15 min (to reduce constitutive background ubiquitination), stimulated with 10 μM ISO and lysed in buffer supplemented with 10 mM N-ethylmaleimide (NEM; Sigma) to inhibit deubiquitinase activity. Anti-FLAG EZview beads (Sigma) used for the IP were subjected to three 10 min washes with lysis buffer and resuspended in 50 μl 2βLDS sample buffer (Invitrogen) containing 10% β-mercaptoethanol (Sigma) and analyzed by immunoblotting.

β2ARt [6] = biological target: T2, β2ARt (Homo sapiens, UniProt P07550); assay: β2AR ubiquitination assay, β2ARt cells; assay type: cell-based; details: ISO stimulation
T2 construct: a distally truncated form (after residue 385) of β2AR (β2ARt); expressed in transfected cells; host or cells: HEK293 (293.β2AR*)
Method: (§1) β2AR ubiquitination and degradation assays. Cells expressing […] or β2ARt were subjected to 10 μM ISO (Sigma) stimulation, lysed in 0.5% NP-40 lysis buffer and immunoblotted with anti-FLAG-HRP (Sigma). For β2AR ubiquitination, β2ARt or wt-β2AR expressing cells were first incubated with 10 μM alprenolol antagonist (Sigma) for 15 min (to reduce constitutive background ubiquitination), stimulated with 10 μM ISO and lysed in buffer supplemented with 10 mM N-ethylmaleimide (NEM; Sigma) to inhibit deubiquitinase activity. Anti-FLAG EZview beads (Sigma) used for the IP were subjected to three 10 min washes with lysis buffer and resuspended in 50 μl 2βLDS sample buffer (Invitrogen) containing 10% β-mercaptoethanol (Sigma) and analyzed by immunoblotting.

wild-type β2AR [7] = biological target: T1, wild-type β2AR; assay: β2AR ubiquitination assay, wild-type β2AR cells; assay type: cell-based; details: ISO stimulation
Method: as §1

NEDD4/β2AR = biological target: T3, NEDD4/β2AR (Homo sapiens, UniProt P07550); assay: IP assay of NEDD4/β2AR association in β2ARt-expressing cells; assay type: cell-based; details: presence or absence of ISO stimulation
T3 construct: a distally truncated form (after residue 385) of β2AR (β2ARt); expressed in transfected cells; host or cells: HEK293 cells stably expressing FLAG-β2ARt
Method: FIGS. 10A-10B show ARRDC3 is an essential adaptor for β2AR ubiquitination. […] Cells stably expressing FLAG-β2ARt were transfected with siRNAs targeting nothing (scrambled), ARRDC3, or β-arrestin-2 and then subjected to a treatment with vehicle or ISO. Anti-FLAG immunoprecipitates from the corresponding lysates and whole cell extracts (WCE) were analyzed by immunoblotting with the indicated antibodies. FIG. 10B is a schematic model of ARRDC3 functioning as an adaptor for β2AR ubiquitination.
Co-immunoprecipitations (co-IP). 293T cells were transfected using Fugene 6 (Roche) or Turbofect (Fermentas). 48 h later, cells were lysed, pre-cleared with protein A agarose, and HA- or FLAG-tagged proteins were IP-ed using anti-HA EZview or anti-FLAG EZview beads. Washed beads were resuspended in sample buffer and analyzed by immunoblotting. Where noted, cross-linking was achieved by incubation for 40 min with 2 mM crosslinker dithio-bismaleimidoethane (DTME; Pierce) in PBS containing 10 mM Hepes (pH 7.5), as previously described (Shenoy et al, 2008) with minor modifications. IP complexes were washed three times consecutively in lysis, high salt, and low salt buffers then resuspended in sample buffer before immunoblotting.

β2ARt [8] = biological target: T2, β2ARt; assay: Immunoblot of agonist-induced β2AR degradation in 293β2AR* / β2ARt cells; assay type: cell-based
Method: as §1

ARRDC3 = ARRDC3 protein knockdown by siRNA; assay type: cell-based, human

Compound: O=C(O)c1ccc2c3c1cccc3c(=O)n1c3ccccc3nc21 [STO-609]
- β2AR protein level (β2AR [1]; at as low as 2 μM, three days): an increase in β2AR
- β2AR protein level (β2AR [2]): increased exogenously expressed β2AR protein

Compound: AA496068 EST siRNAs: siRNA having the sequence UAAUAUUUAAUGAGGCGGCCU (SEQ ID NO: 27) (listed as RNA, chemistry not given here)
- latrophilin 2 expression (latrophilin 2): increases the expression of latrophilin 2

Compound: AAEST siRNA: 5′ UAAUAUUUAAUGAGGCGGCCUdTdT (SEQ ID NO: 34) and/or 5′ AGGCCGCCUCAUUAAAUAUUAdTdT (SEQ ID NO: 35) (chain 1 UAAUAUUUAAUGAGGCGGCCUTT; chain 2 AGGCCGCCUCAUUAAAUAUUATT; sugars from the 5' end r21 d2, backbone not given here)
- baseline β2AR expression (β2AR [3]): an increase in baseline β2AR expression
- total β2-AR protein expression (β2AR [1]; western blot, FIG. 16B): decreased total β2-AR protein expression
- mRNA expression level of β2-adrenergic receptor (β2AR [4]): did not decrease the mRNA expression level
- presence of β2-AR on the cell surface (surface β2-AR): decreases the presence of β2-AR on the surface

Compound: ARRDC3 siRNA: siRNA having the sequence GAACUGCUCUUCCCGAAUG (SEQ ID NO: 25) (chemistry not given here)
- ISO-induced degradation of wild-type β2AR (wild-type β2AR [5]): blocked
- reduction in normalized amount of ubiquitinated β2AR compared to ISO-treated control (β2ARt [6]): −70%
- reduction in ubiquitinated β2AR compared to ISO-treated control (wild-type β2AR [7]): −30%
- association of NEDD4 with β2AR (NEDD4/β2AR): completely abrogated
- level of un-degraded receptor after ISO vs scrambled control siRNA (β2ARt [8]; ISO-induced degradation of β2ARt): about 6 fold
- increase in basal level of the receptor (β2ARt [8]; prior to ISO stimulation): < 2 fold
- knockdown of ARRDC3 protein expression (ARRDC3): > 75%
